Test results from ChEMBL document CHEMBL1201862, “PubChem BioAssay data set” (2004).
Calls of active or inactive are those of the source.

Assays:
[1] = molecular target: T1, Exodeoxyribonuclease V (Escherichia coli (strain K12), UniProt P04993+P07648+P08394); test: E. coli RecBCD inhibitors, dose response, counter-screen for AddAB inhibitor project, absorbance, V66 E. coli, mutant T4 phage (AID 492957); assay type: functional, cell-based, Escherichia coli str. K-12 substr. MG1655
T1 sequence (P04993 whole entry): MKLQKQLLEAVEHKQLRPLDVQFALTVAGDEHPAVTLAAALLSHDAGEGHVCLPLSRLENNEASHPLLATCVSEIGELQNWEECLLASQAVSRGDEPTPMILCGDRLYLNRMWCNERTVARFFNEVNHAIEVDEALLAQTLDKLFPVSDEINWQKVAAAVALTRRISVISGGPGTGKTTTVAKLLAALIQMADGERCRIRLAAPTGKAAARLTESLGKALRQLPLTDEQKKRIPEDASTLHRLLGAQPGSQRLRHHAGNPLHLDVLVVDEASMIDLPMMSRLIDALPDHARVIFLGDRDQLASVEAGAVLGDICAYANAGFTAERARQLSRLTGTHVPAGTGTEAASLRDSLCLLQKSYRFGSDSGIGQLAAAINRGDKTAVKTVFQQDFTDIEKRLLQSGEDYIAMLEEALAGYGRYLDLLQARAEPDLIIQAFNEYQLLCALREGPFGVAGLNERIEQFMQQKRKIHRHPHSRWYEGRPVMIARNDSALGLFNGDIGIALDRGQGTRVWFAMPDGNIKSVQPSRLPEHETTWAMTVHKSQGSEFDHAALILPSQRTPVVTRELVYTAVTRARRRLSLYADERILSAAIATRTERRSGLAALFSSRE
T1 sequence (P07648 whole entry): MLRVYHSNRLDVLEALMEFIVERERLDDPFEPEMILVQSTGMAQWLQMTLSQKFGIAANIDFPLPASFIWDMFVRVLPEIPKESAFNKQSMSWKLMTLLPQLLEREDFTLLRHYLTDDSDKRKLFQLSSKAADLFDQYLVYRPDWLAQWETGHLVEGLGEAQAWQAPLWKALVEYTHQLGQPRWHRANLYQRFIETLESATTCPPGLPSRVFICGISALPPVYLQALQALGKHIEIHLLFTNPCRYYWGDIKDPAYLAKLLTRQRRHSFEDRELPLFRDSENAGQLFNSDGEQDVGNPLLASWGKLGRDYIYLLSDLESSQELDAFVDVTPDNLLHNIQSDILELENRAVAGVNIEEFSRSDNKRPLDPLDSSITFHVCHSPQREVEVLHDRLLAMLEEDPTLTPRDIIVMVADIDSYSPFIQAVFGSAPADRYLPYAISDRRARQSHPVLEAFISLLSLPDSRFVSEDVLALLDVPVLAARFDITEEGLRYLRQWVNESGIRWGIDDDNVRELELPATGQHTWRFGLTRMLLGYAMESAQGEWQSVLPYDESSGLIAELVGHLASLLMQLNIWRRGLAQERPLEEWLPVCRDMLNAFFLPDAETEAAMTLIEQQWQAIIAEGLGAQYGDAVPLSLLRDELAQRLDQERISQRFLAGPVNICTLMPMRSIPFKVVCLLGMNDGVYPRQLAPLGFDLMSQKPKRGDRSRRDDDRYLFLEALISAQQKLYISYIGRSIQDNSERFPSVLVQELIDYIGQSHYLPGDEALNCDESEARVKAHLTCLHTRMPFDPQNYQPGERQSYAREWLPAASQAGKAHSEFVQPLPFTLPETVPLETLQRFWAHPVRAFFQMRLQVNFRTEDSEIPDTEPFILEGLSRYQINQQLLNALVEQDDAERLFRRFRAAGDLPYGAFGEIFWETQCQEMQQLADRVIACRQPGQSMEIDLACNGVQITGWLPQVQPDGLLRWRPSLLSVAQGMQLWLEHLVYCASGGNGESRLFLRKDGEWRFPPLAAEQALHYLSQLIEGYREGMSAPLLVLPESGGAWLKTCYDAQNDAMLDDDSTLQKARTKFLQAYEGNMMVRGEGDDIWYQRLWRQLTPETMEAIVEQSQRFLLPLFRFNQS
T1 sequence (P08394 whole entry): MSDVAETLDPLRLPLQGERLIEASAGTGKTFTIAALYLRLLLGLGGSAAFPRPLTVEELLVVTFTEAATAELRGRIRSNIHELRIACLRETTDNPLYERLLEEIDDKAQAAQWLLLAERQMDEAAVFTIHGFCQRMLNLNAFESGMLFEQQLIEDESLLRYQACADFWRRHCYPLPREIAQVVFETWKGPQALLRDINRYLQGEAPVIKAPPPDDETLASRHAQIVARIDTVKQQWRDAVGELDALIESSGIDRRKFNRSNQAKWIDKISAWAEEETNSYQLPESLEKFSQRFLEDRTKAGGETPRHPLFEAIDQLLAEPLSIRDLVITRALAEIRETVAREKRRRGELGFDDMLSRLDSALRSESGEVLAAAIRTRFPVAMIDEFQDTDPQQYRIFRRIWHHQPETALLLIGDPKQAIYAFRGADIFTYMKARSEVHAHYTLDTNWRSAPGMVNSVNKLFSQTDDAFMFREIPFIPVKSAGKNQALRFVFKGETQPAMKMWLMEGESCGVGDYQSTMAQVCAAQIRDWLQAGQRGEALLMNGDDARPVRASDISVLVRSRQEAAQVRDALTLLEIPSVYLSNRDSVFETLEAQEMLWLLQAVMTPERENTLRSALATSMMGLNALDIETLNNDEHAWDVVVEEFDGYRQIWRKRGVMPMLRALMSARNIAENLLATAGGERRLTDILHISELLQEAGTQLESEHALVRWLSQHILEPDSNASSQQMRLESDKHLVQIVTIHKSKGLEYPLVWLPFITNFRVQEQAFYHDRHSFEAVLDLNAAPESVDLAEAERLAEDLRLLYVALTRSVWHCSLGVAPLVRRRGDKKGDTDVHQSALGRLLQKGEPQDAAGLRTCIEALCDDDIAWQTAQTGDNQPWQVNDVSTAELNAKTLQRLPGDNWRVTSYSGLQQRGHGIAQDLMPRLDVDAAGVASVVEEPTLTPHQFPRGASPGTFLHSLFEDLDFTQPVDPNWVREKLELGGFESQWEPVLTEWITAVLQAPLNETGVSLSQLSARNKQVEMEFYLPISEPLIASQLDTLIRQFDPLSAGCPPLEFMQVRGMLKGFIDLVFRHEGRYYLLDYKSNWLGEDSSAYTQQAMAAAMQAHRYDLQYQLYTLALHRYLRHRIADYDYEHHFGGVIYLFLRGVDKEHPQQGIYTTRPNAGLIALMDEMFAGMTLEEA

[2] = Counterscreen for AddAB inhibitors: absorbance-based bacterial cell-based high throughput dose response assay for inhibitors of bacterial viability. [Related pubchem assays (depositor defined):AID435030, AID449728, AID449731, AID488942, AID488955, AID488956]; assay type: functional
[3] = system: INS1; test: beta cell apoptosis inhibitors, cytokine rescue, dose response, luminescence, retest (AID 449756); assay type: functional, cell-based; conditions: Rattus norvegicus;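 note: cell death triggered by IL-1 beta plus TNF-alpha plus IFN-gamma mixture; protective hits raise ATP signal compared with cytokine alone wells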

Row | Structure (SMILES) | IC50 [1] | IC50 [2] | AC50 [3]
1 | Cc1onc(-c2ccccc2)c1C(=O)NC(=S)NNC(=O)c1ccc(O)cc1O | > 39.5 µM (inactive) | > 39.5 µM (inactive) | 3.95 µM (active)
2 | O=C(N/N=C/c1ccc(O)cc1O)C(=O)N/N=C/c1ccc(O)cc1O | > 119 µM (inactive) | > 119 µM (inactive) | 
